In US20250313563A1, “GLYCOGEN SYNTHASE KINASE 3 INHIBITORS AND USES THEREOF” (The Broad Institute, Inc., priority 2022, published 2025):
pIC50: −log10 of the molar value. Read-outs that look alike come from different tables or passages of the source.

What was measured:
[1] = target: GSK3α (GST-full length GSK3α) (Homo sapiens (Human), UniProt P49840); assay: GSK3α TR-FRET kinase assay; format: biochemical
How it was run: (§1)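 Full-length GST-tagged human enzyme (1 nM) is exposed to test compound for 30 min before substrates are added. Phosphorylation of a primed biotinylated glycogen synthase peptide proceeds 100 min at room temperature at low ATP (4 μM α; 2 μM β) or high ATP (1 mM). Product is quantified by TR-FRET.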

[2] = target: GSK3b (GST-full length GSK3b) (Homo sapiens (Human), UniProt P49841); assay: GSK3b TR-FRET kinase assay; format: biochemical
Chain of GSK3b (GST-full length GSK3b) (P49841 whole entry): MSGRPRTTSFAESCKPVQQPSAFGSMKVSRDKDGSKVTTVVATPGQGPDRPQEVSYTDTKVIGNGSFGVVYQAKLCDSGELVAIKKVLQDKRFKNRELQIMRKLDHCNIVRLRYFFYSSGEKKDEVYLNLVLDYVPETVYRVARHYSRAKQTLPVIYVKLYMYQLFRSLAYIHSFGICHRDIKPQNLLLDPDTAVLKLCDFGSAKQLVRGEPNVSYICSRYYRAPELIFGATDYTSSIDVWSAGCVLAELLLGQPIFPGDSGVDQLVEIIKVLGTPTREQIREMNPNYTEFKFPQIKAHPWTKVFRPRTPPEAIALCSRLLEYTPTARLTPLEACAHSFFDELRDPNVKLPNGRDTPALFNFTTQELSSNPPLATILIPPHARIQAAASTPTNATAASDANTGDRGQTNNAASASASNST
How it was run: as §1

[3] = 1 nM GSK3α, 4 μM ATP, 30 minute preincubation, read-out: GSK3-A TR-FRET BIOCHEMICAL (TR-FRET), IC50
[4] = 1 nM GSK3b, 2 μM ATP, 30 minute preincubation, read-out: GSK3-B TR-FRET BIOCHEMICAL (TR-FRET), IC50
[5] = 1 nM GSK3α, 4 μM ATP, 30 minute preincubation, geometric mean, read-out: GSK3-A TR-FRET BIOCHEMICAL (TR-FRET), GMean, IC50
[6] = 1 nM GSK3b, 2 μM ATP, 30 minute preincubation, geometric mean, read-out: GSK3-B TR-FRET BIOCHEMICAL (TR-FRET), GMean, IC50
[7] = read-out: GSK3-A (TR-FRET 1 mM ATP), GMean, IC50, 1 mM ATP, geometric mean
[8] = read-out: GSK3-B (TR-FRET 1 mM ATP), GMean, IC50, 1 mM ATP, geometric mean
[9] = 1 nM GSK3α, 4 μM ATP, 30 minute preincubation, Table 16, read-out: GSK3-A TR-FRET BIOCHEMICAL (TR-FRET)
[10] = 1 nM GSK3b, 2 μM ATP, 30 minute preincubation, Table 16, read-out: GSK3-B TR-FRET BIOCHEMICAL (TR-FRET)

Chain of GSK3α (GST-full length GSK3α) (P49840 whole entry): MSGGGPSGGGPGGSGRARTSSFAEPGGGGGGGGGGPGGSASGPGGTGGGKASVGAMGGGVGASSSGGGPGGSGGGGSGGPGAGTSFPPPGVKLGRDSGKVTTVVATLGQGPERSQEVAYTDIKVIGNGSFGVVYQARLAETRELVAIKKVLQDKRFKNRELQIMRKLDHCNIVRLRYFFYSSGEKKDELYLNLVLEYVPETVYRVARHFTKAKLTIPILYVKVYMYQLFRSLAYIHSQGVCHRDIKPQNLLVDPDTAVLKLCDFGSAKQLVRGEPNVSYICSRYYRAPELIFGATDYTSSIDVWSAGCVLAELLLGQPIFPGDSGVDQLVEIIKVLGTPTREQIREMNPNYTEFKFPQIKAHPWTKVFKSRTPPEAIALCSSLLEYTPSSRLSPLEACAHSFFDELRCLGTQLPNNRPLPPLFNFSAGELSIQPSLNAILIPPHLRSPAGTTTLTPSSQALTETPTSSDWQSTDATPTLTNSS

Compound | pIC50 [1, 5] | pIC50 [2, 6] | also measured
CC(=O)N1C[C@@]2(C[C@@]3(CO2)C2=C(CC(C)(C)CC2=O)Nc2n[nH]cc23)[C@@H]1C [Compound 948440] |  |  | pIC50 [1, 3]: ≥ 7.00; pIC50 [2, 4]: ≥ 7.00
CCC1(c2cccc(-c3ccnc(C)c3)c2)C2=C(CC(C)(COC)NC2=O)Nc2n[nH]cc21 (stereo not drawn) [Compound 948493] | < 5.30 | < 5.30 | 
CC[C@]1(c2cccc(-c3ccncc3C)c2)C2=C(CC3(CCC3)NC2=O)Nc2n[nH]cc21 [Compound 948512] | ≥ 7.00 | ≥ 7.00 | pIC50 [1, 7]: 6.00 to 7.00; pIC50 [2, 8]: 5.30 to 6.00
CCC1(c2cccc(-c3c(F)cncc3F)c2)C2=C(CC(C)(C)NC2=O)Nc2n[nH]cc21 (stereo not drawn) [Compound 948514] | 5.30 to 6.00 | < 5.30 | 
CC[C@]1(c2cccc(-c3ccnc4ccc(Cl)cc34)c2)C2=C(CC(C)(C)N(C)C2=O)Nc2n[nH]cc21 [Compound 948517] | ≥ 7.00 | ≥ 7.00 | 
CC[C@@]1(c2cccc(-c3ccnc4ccc(OC)cc34)c2)C2=C(CC(C)(C)NC2=O)Nc2n[nH]cc21 [Compound 948518] | < 5.30 | < 5.30 | 
CC[C@@]1(c2cccc(-c3ccnc4cc(F)ccc34)c2)C2=C(CC(C)(C)NC2=O)Nc2n[nH]cc21 [Compound 948519] | < 5.30 | < 5.30 | 
CCC1(c2cccc(-c3ccnc(OC)c3F)c2)C2=C(CC(C)(C)NC2=O)Nc2n[nH]cc21 (stereo not drawn) [Compound 948520] | 6.00 to 7.00 | 5.30 to 6.00 | 
CCC1(c2cccc(-c3ccnc(C)c3)c2)C2=C(CC(C)(COC)NC2=O)Nc2n[nH]cc21 (stereo not drawn) [Compound 948521] | ≥ 7.00 | 5.30 to 6.00 | 
CCC1(c2cccc(-c3ccnn3C)c2)C2=C(CC3(CCC3)NC2=O)Nc2n[nH]cc21 (stereo not drawn) [Compound 948522] | 6.00 to 7.00 | < 5.30 | 
CC[C@]1(c2cccc(-c3ccnn3C)c2)C2=C(CC3(CCOCC3)NC2=O)Nc2n[nH]cc21 [Compound 948526] | 5.30 to 6.00 | < 5.30 | 
CC[C@]1(c2cccc(-c3ccnc4cc(F)ccc34)c2)C2=C(CC(C)(C)NC2=O)Nc2n[nH]cc21 [Compound 948528] | ≥ 7.00 | 6.00 to 7.00 | 
CCC1(c2cccc(-c3c(F)cncc3OC)c2)C2=C(Nc3n[nH]cc31)C(F)C(C)(C)CC2=O (stereo not drawn) [Compound 948545, 4-ethyl-8-fluoro-4-(3-(3-fluoro-5-methoxypyridin-4-yl)phenyl)-7,7-dimethyl-2,4,6,7,8,9-hexahydro-SH-pyrazolo[3,4-b]quinolin-5-one] |  |  | pIC50 [1, 9]: ≥ 7.00; pIC50 [1, 7]: ≥ 7.00; pIC50 [2, 10]: ≥ 7.00; pIC50 [2, 8]: 6.00 to 7.00
CCC1(c2cccc(-c3c(F)cncc3OC)c2)C2=C(Nc3n[nH]cc31)C(F)C(C)(C)CC2=O (stereo not drawn) [Compound 948547, 4-ethyl-8-fluoro-4-(3-(3-fluoro-5-methoxypyridin-4-yl)phenyl)-7,7-dimethyl-2,4,6,7,8,9-hexahydro-SH-pyrazolo[3,4-b]quinolin-5-one] |  |  | pIC50 [1, 9]: ≥ 7.00; pIC50 [1, 7]: 6.00 to 7.00; pIC50 [2, 10]: ≥ 7.00; pIC50 [2, 8]: 5.30 to 6.00
CCC1(c2cccc(-c3c(F)cncc3OC)c2)C2=C(Nc3n[nH]cc31)C(F)C(C)(C)CC2=O (stereo not drawn) [Compound 948548, 4-ethyl-8-fluoro-4-(3-(3-fluoro-5-methoxypyridin-4-yl)phenyl)-7,7-dimethyl-2,4,6,7,8,9-hexahydro-SH-pyrazolo[3,4-b]quinolin-5-one] |  |  | pIC50 [1, 9]: ≥ 7.00; pIC50 [2, 10]: 6.00 to 7.00
CCC1(c2cccc(-c3c(F)cncc3OC)c2)C2=C(CN(Cc3ccccc3)C2=O)Nc2n[nH]cc21 (stereo not drawn) [Compound 948550] |  |  | pIC50 [1, 3]: ≥ 7.00; pIC50 [2, 4]: 6.00 to 7.00
CCC1(c2cccc(-c3ccnc4c3CCCC4)c2)C2=C(CN(Cc3ccccc3)C2=O)Nc2n[nH]cc21 (stereo not drawn) [Compound 948551] |  |  | pIC50 [1, 3]: ≥ 7.00; pIC50 [2, 4]: 6.00 to 7.00
CC[C@]1(c2cccc(-c3ccnc4c3CCCC4)c2)C2=C(CN(Cc3ccccc3)C2=O)Nc2n[nH]cc21 [Compound 948552] |  |  | pIC50 [1, 3]: 6.00 to 7.00; pIC50 [2, 4]: < 5.30
CCC1(c2cccc(C(F)(F)C(F)(F)F)c2)C2=C(CC(C)(C)CC2=O)Nc2n[nH]cc21 (stereo not drawn) [Compound 948615] |  |  | pIC50 [1, 9]: ≥ 7.00; pIC50 [2, 10]: ≥ 7.00
CCC1(c2cccc(-c3ccnc(C)c3)c2)C2=C(CC3(CCCC3)NC2=O)Nc2n[nH]cc21 (stereo not drawn) [Compound 948641] | < 5.30 | < 5.30 | 
CC[C@@]1(c2cccc(-c3ccnc4cc(Cl)c(C)cc34)c2)C2=C(CC(C)(C)NC2=O)Nc2n[nH]cc21 [Compound 948645] | 6.00 to 7.00 | < 5.30 | 
CC[C@@]1(c2cccc(-c3cc(OC)nc4ccccc34)c2)C2=C(CC(C)(C)NC2=O)Nc2n[nH]cc21 [Compound 948647] | < 5.30 | < 5.30 | 
CCC1(c2cccc(-c3ccnc4cc(OC)ccc34)c2)C2=C(CC(C)(C)NC2=O)Nc2n[nH]cc21 (stereo not drawn) [Compound 948649] | < 5.30 | < 5.30 | 
CCC1(c2cccc(-c3ccnc4ccc(C)cc34)c2)C2=C(CC(C)(C)NC2=O)Nc2n[nH]cc21 (stereo not drawn) [Compound 948651] | < 5.30 | < 5.30 | 
CCC1(c2cccc(-c3ccnc(N4CCOCC4)c3)c2)C2=C(CC(C)(C)NC2=O)Nc2n[nH]cc21 (stereo not drawn) [Compound 948653] | ≥ 7.00 | ≥ 7.00 | 
CCC1(c2cccc(-c3ccnc4cc(Cl)c(C)cc34)c2)C2=C(CC(C)(C)NC2=O)Nc2n[nH]cc21 (stereo not drawn) [Compound 948654] | < 5.30 | < 5.30 | 
CCC1(c2cccc(-c3ccnc(N4CCCCC4)c3)c2)C2=C(CC(C)(C)NC2=O)Nc2n[nH]cc21 (stereo not drawn) [Compound 948663] | < 5.30 | < 5.30 | 
CCC1(c2cccc(OC)c2)C2=C(CC(C)(C)NC2=O)Nc2n[nH]c(C)c21 (stereo not drawn) [Compound 948763] | ≥ 7.00 | 6.00 to 7.00 | 
CCC1(c2cccc(-c3cc(C)nnc3C)c2)C2=C(CC(C)(C)NC2=O)Nc2n[nH]c(C)c21 (stereo not drawn) [Compound 948765] | ≥ 7.00 | ≥ 7.00 | 

Now from value to compound, other results behind:

pIC50 [1, 5] | pIC50 [2, 6] | Compound | also measured
≥ 7.00 | 6.00 to 7.00 | CC[C@]1(c2cccc(-c3ccnc(C)c3)c2)C2=C(CC3(CCOCC3)NC2=O)Nc2n[nH]c(C)c21 [Compound 948513] | 
≥ 7.00 | ≥ 7.00 | CCC1(c2cccc(-c3c(Cl)cncc3Cl)c2)C2=C(CC(C)(C)NC2=O)Nc2n[nH]cc21 (stereo not drawn) [Compound 948515] | pIC50 [1, 7]: ≥ 7.00; pIC50 [2, 8]: 6.00 to 7.00
≥ 7.00 | 6.00 to 7.00 | CCC1(c2cccc(-c3ccnn3C)c2)C2=C(CC3(CCOCC3)NC2=O)Nc2n[nH]cc21 (stereo not drawn) [Compound 948516] | 
≥ 7.00 | 6.00 to 7.00 | CCC1(c2cccc(-c3ccncc3C)c2)C2=C(CC3(CCC3)NC2=O)Nc2n[nH]cc21 (stereo not drawn) [Compound 948523] | 
5.30 to 6.00 | < 5.30 | CCC1(c2cccc(-c3ccnc(C)c3)c2)C2=C(CC3(CCOCC3)NC2=O)Nc2n[nH]cc21 (stereo not drawn) [Compound 948524] | 
< 5.30 | < 5.30 | CCC1(c2cccc(-c3ccnc4cc(F)c(F)cc34)c2)C2=C(CC(C)(C)NC2=O)Nc2n[nH]cc21 (stereo not drawn) [Compound 948638] | 
≥ 7.00 | 6.00 to 7.00 | CCc1cnccc1-c1cccc([C@]2(CC)C3=C(CC(C)(C)NC3=O)Nc3n[nH]cc32)c1 [Compound 948639] | 
6.00 to 7.00 | 5.30 to 6.00 | CC[C@@]1(c2cccc(-c3ccncc3C3CC3)c2)C2=C(CC(C)(C)NC2=O)Nc2n[nH]cc21 [Compound 948642] | 
< 5.30 | < 5.30 | CC[C@@]1(c2cccc(-c3ccncc3OC3CC3)c2)C2=C(CC(C)(C)NC2=O)Nc2n[nH]cc21 [Compound 948643] | 
< 5.30 | < 5.30 | CCC1(c2cccc(-c3ccncc3C)c2)C2=C(CC3(CCOC3)NC2=O)Nc2n[nH]cc21 (stereo not drawn) [Compound 948648] | 
< 5.30 | < 5.30 | CC[C@@]1(c2cccc(-c3ccnc4c(Cl)cccc34)c2)C2=C(CC(C)(C)NC2=O)Nc2n[nH]cc21 [Compound 948650] | 
< 5.30 | < 5.30 | CCC1(c2cccc(-c3ccncc3OC3CC3)c2)C2=C(CC(C)(C)NC2=O)Nc2n[nH]cc21 (stereo not drawn) [Compound 948656] | 
< 5.30 | < 5.30 | CCc1cnccc1-c1cccc(C2(CC)C3=C(CC(C)(C)NC3=O)Nc3n[nH]cc32)c1 (stereo not drawn) [Compound 948657] | 
< 5.30 | < 5.30 | CC[C@@]1(c2cccc(-c3ccnc4ccc(C)cc34)c2)C2=C(CC(C)(C)NC2=O)Nc2n[nH]cc21 [Compound 948658] | 
< 5.30 | < 5.30 | CCC1(c2cccc(-c3ccnc4c(Cl)cccc34)c2)C2=C(CC(C)(C)NC2=O)Nc2n[nH]cc21 (stereo not drawn) [Compound 948659] | 
≥ 7.00 | 6.00 to 7.00 | CCC1(c2cccc(-c3ccnc4cc(OC)ccc34)c2)C2=C(CC(C)(C)NC2=O)Nc2n[nH]cc21 (stereo not drawn) [Compound 948661] | 
≥ 7.00 | ≥ 7.00 | CCC1(c2cccc(-c3cc(C)ncc3F)c2)C2=C(CC(C)(C)NC2=O)Nc2n[nH]c(C)c21 (stereo not drawn) [Compound 948761] | 
≥ 7.00 | 6.00 to 7.00 | CCC1(c2cccc(Oc3ncccn3)c2)C2=C(CC(C)(C)NC2=O)Nc2n[nH]cc21 (stereo not drawn) [Compound 948764] | 
